“Also recorded” adds a separate entry of the source.

The assay concerns human influenza A virus X-113 reassortant vaccine strain (hemagglutinin and neuraminidase of A/Texas/36/91, H1N1). The format is binding.
NeuAcα3Galβ4(Fucα3)GlcNAcβ-: the “Binding of human influenza virus HRP conjugate to glycolipid on TLC plate” value (“Binding” for short) is “excluded; also recorded: no binding”.
“NeuAcα3Galβ4GlcNAcβ3Galβ4(Fucα3)GlcNAcβ- [VIM-2]”: the “Binding” value is reported as “excluded; also recorded: no binding”.
Regarding NeuAcα3Galβ4GlcβCer [GM3], the “Binding” value is reported as “did not see binding”.
“NeuAcα6Galβ4GlcNAcβ3Galβ4GlcNAcβ3Galβ4GlcβCer [7-sugar NeuAc-6-neolacto ganglioside]”: the “Binding” value was “did not show binding; also recorded: no binding at all”.
Take “NeuAcα6Galβ4GlcNAcβ3Galβ4GlcβCer [S-6-PG]”: the “Binding” value is listed as “did not show binding; also recorded: no binding at all”.
For sulfatide, the “Binding” value is listed as “probably unspecific interaction”.

The values above are taken from patent US7902170B2, “Influenza virus binding, sialylated oligosaccharide substance and use thereof” (priority 2000, dated 2011).
